# Measured values taken from patent US12624017B2, “Salt form of isoquinolinone type compound as rock inhibitor and preparation method therefor” (GUANGZHOU OCUSUN OPHTHALMIC BIOTECHNOLOGY CO., LTD., priority 2020, dated 2026).
# Assays:
# [1] = test system: New Zealand rabbits with normal intraocular pressure; test: Intraocular pressure reduction, normal intraocular pressure, eye drops in both eyes for 14 days (Operation I); format: in vivo, New Zealand white rabbits; settings: for Change in intraocular pressure: vs negative control
# Source text: An intraocular pressure reduction effect and potential ocular toxicity of the compound of formula (I) were inspected with rabbits with normal intraocular pressure by repeated administration of eye drops for 14 days.
# Male New Zealand white rabbits, aged 97 to 127 days, weighted 2.6-3.5 kg, purchased from Pizhou Oriental Breeding Co., Ltd.
# The Male New Zealand white rabbits were randomly divided into 7 groups according to body weights, 6 rabbits/group. The animals in Groups 1 to 7 were administrated dropwise with a solvent/control/test article in both eyes in an administration volume of 50 μL/eye, once a day for 14 consecutive days, and the day of first administration was recorded as Day 1. The intraocular pressures of the animals were measured before administration, as well as at 1, 2, 4, 6, 8 and 10 h after administration, respectively. On Days 2 to 14, the intraocular pressures of animals in the K-115 administration group were measured at 1 h after daily administration; and intraocular pressures of the animals in the remaining groups were measured at 4 h after daily administration.
# [2] = Pharmacokinetic test in aqueous humor after eye drops; format: in vivo, New Zealand white rabbits; settings: eye drops 0.5 mg/eye
# Source text: The compound was a prodrug molecule containing an ester functional group, which can be hydrolyzed into an active drug molecule (parent drug) under the action of abundant ester hydrolase in the eye tissue when administered with eye drops. In this experiment, the production rate of the active pharmaceutical ingredients in vivo and the exposure amount of the active pharmaceutical ingredients were detected.
# Male New Zealand white rabbits, aged 3 to 6 months, weighted 2.0 to 5.0 kg, purchased from Pizhou Oriental Breeding Co., Ltd.
# The used solvent was 1.2% hydroxypropyl methylcellulose E5/20.5% poloxamer P407/1.6% poloxamer P188.
# The dosage of eye drops was 0.5 mg/eye, administrated in both eyes. Aqueous humor samples were collected at 0.25 h, 0.5 h, 2 h, 4 h, 8 h, and 24 h after administration. All samples were quantitatively detected by liquid chromatography coupled with mass spectrometry-mass spectrometry in the aqueous humor of the experimental animals. The measured concentration values were calculated by WinNonlin non-compartment model according to the concentration-time data of aqueous humor, such as half-life, peak concentration, peak time, unit exposure amount of aqueous humor, etc.
# [3] = 2.0 mg/mL, Day 1, 1 h after administration
# [4] = 2.0 mg/mL, Day 1, 2 h after administration
# [5] = 2.0 mg/mL, Day 1, 4 h after administration
# [6] = 2.0 mg/mL, Day 1, 6 h after administration
# [7] = 2.0 mg/mL, Day 1, 8 h after administration
# [8] = 2.0 mg/mL, Day 1, 10 h after administration
# [9] = 2.0 mg/mL, Day 1, before administration
# [10] = 4.0 mg/mL once a day, Day 2, 4 h after daily administration
# [11] = 4.0 mg/mL once a day, Day 3, 4 h after daily administration
# [12] = 4.0 mg/mL once a day, Day 4, 4 h after daily administration
# [13] = 4.0 mg/mL once a day, Day 5, 4 h after daily administration
# [14] = 4.0 mg/mL once a day, Day 6, 4 h after daily administration
# [15] = 4.0 mg/mL once a day, Day 7, 4 h after daily administration
# [16] = 4.0 mg/mL, Day 1, 1 h after administration
# [17] = 4.0 mg/mL, Day 1, 2 h after administration
# [18] = 4.0 mg/mL, Day 1, 4 h after administration
# [19] = 4.0 mg/mL, Day 1, 6 h after administration
# [20] = 4.0 mg/mL, Day 1, 8 h after administration
# [21] = 4.0 mg/mL, Day 1, 10 h after administration
# [22] = 4.0 mg/mL, Day 1, before administration
# [23] = 8.0 mg/mL once a day, Day 2, 4 h after daily administration
# [24] = 8.0 mg/mL once a day, Day 3, 4 h after daily administration
# [25] = 8.0 mg/mL once a day, Day 4, 4 h after daily administration
# [26] = 8.0 mg/mL once a day, Day 5, 4 h after daily administration
# [27] = 8.0 mg/mL once a day, Day 6, 4 h after daily administration
# [28] = 8.0 mg/mL once a day, Day 7, 4 h after daily administration
# [29] = 8.0 mg/mL, Day 1, 1 h after administration
# [30] = 8.0 mg/mL, Day 1, 2 h after administration
# [31] = 8.0 mg/mL, Day 1, 4 h after administration
# [32] = 8.0 mg/mL, Day 1, 6 h after administration
# [33] = 8.0 mg/mL, Day 1, 8 h after administration
# [34] = 8.0 mg/mL, Day 1, 10 h after administration
# [35] = 8.0 mg/mL, Day 1, before administration
smiles,measurement,setting,value
Cc1ccc(C(=O)OCn2cc(C)c3c(S(=O)(=O)N4CC[C@H](N)C4)cccc3c2=O)c(C)c1 [Compound of formula (I)],Change in intraocular pressure,"[1]; 2.0 mg/mL once a day, Day 14, 4 h after daily administration",3.91 mmHg
same,Average intraocular pressure in both eyes,[1]; [3],8.56 mmHg
same,Change in intraocular pressure,[1]; [3],1.75 mmHg
same,Average intraocular pressure in both eyes,[1]; [4],7.47 mmHg
same,Change in intraocular pressure,[1]; [4],3.5 mmHg
same,Average intraocular pressure in both eyes,[1]; [5],7.47 mmHg
same,Change in intraocular pressure,[1]; [5],3.84 mmHg
same,Average intraocular pressure in both eyes,[1]; [6],7.25 mmHg
same,Change in intraocular pressure,[1]; [6],4.69 mmHg
same,Average intraocular pressure in both eyes,[1]; [7],8.44 mmHg
same,Change in intraocular pressure,[1]; [7],4.53 mmHg
same,Average intraocular pressure in both eyes,[1]; [8],9.67 mmHg
same,Change in intraocular pressure,[1]; [8],4.75 mmHg
same,Average intraocular pressure in both eyes,[1]; [9],9.67 mmHg
same,Change in intraocular pressure,[1]; [9],0.22 mmHg
same,Average intraocular pressure in both eyes,[1]; [10],6.53 mmHg
same,Change in intraocular pressure,[1]; [10],4.55 mmHg
same,Average intraocular pressure in both eyes,[1]; [11],5.58 mmHg
same,Change in intraocular pressure,[1]; [11],4.81 mmHg
same,Average intraocular pressure in both eyes,[1]; [12],5.53 mmHg
same,Change in intraocular pressure,[1]; [12],5.08 mmHg
same,Average intraocular pressure in both eyes,[1]; [13],6.61 mmHg
same,Change in intraocular pressure,[1]; [13],4.36 mmHg
same,Average intraocular pressure in both eyes,[1]; [14],5.47 mmHg
same,Change in intraocular pressure,[1]; [14],3.84 mmHg
same,Average intraocular pressure in both eyes,[1]; [15],5.56 mmHg
same,Change in intraocular pressure,[1]; [15],4.5 mmHg
same,Change in intraocular pressure,"[1]; 4.0 mg/mL once a day, Day 8, 4 h after daily administration",4.53 mmHg
same,Change in intraocular pressure,"[1]; 4.0 mg/mL once a day, Day 9, 4 h after daily administration",3.97 mmHg
same,Change in intraocular pressure,"[1]; 4.0 mg/mL once a day, Day 10, 4 h after daily administration",4.67 mmHg
same,Change in intraocular pressure,"[1]; 4.0 mg/mL once a day, Day 11, 4 h after daily administration",3.86 mmHg
same,Change in intraocular pressure,"[1]; 4.0 mg/mL once a day, Day 12, 4 h after daily administration",3.64 mmHg
same,Change in intraocular pressure,"[1]; 4.0 mg/mL once a day, Day 13, 4 h after daily administration",4.36 mmHg
same,Change in intraocular pressure,"[1]; 4.0 mg/mL once a day, Day 14, 4 h after daily administration",4.64 mmHg
same,Average intraocular pressure in both eyes,[1]; [16],10.44 mmHg
same,Change in intraocular pressure,[1]; [16],−0.13 mmHg
same,Average intraocular pressure in both eyes,[1]; [17],7.81 mmHg
same,Change in intraocular pressure,[1]; [17],3.16 mmHg
same,Average intraocular pressure in both eyes,[1]; [18],6.47 mmHg
same,Change in intraocular pressure,[1]; [18],4.84 mmHg
same,Average intraocular pressure in both eyes,[1]; [19],6.22 mmHg
same,Change in intraocular pressure,[1]; [19],5.72 mmHg
same,Average intraocular pressure in both eyes,[1]; [20],7.33 mmHg
same,Change in intraocular pressure,[1]; [20],5.64 mmHg
same,Average intraocular pressure in both eyes,[1]; [21],8.64 mmHg
same,Change in intraocular pressure,[1]; [21],5.78 mmHg
same,Average intraocular pressure in both eyes,[1]; [22],9.67 mmHg
same,Change in intraocular pressure,[1]; [22],0.22 mmHg
same,Average intraocular pressure in both eyes,[1]; [23],6.33 mmHg
same,Change in intraocular pressure,[1]; [23],4.75 mmHg
same,Average intraocular pressure in both eyes,[1]; [24],5.78 mmHg
same,Change in intraocular pressure,[1]; [24],4.61 mmHg
same,Average intraocular pressure in both eyes,[1]; [25],5.97 mmHg
same,Change in intraocular pressure,[1]; [25],4.64 mmHg
same,Average intraocular pressure in both eyes,[1]; [26],6.42 mmHg
same,Change in intraocular pressure,[1]; [26],4.55 mmHg
same,Average intraocular pressure in both eyes,[1]; [27],5.56 mmHg
same,Change in intraocular pressure,[1]; [27],3.75 mmHg
same,Average intraocular pressure in both eyes,[1]; [28],5.28 mmHg
same,Change in intraocular pressure,[1]; [28],4.78 mmHg
same,Change in intraocular pressure,"[1]; 8.0 mg/mL once a day, Day 8, 4 h after daily administration",5.59 mmHg
same,Change in intraocular pressure,"[1]; 8.0 mg/mL once a day, Day 9, 4 h after daily administration",4.25 mmHg
same,Change in intraocular pressure,"[1]; 8.0 mg/mL once a day, Day 10, 4 h after daily administration",4.19 mmHg
same,Change in intraocular pressure,"[1]; 8.0 mg/mL once a day, Day 11, 4 h after daily administration",4.16 mmHg
same,Change in intraocular pressure,"[1]; 8.0 mg/mL once a day, Day 12, 4 h after daily administration",3.97 mmHg
same,Change in intraocular pressure,"[1]; 8.0 mg/mL once a day, Day 13, 4 h after daily administration",4.72 mmHg
same,Change in intraocular pressure,"[1]; 8.0 mg/mL once a day, Day 14, 4 h after daily administration",4.03 mmHg
same,Average intraocular pressure in both eyes,[1]; [29],7.69 mmHg
same,Change in intraocular pressure,[1]; [29],2.62 mmHg
same,Average intraocular pressure in both eyes,[1]; [30],6.39 mmHg
same,Change in intraocular pressure,[1]; [30],4.58 mmHg
same,Average intraocular pressure in both eyes,[1]; [31],7.06 mmHg
same,Change in intraocular pressure,[1]; [31],4.25 mmHg
same,Average intraocular pressure in both eyes,[1]; [32],7.11 mmHg
same,Change in intraocular pressure,[1]; [32],4.83 mmHg
same,Average intraocular pressure in both eyes,[1]; [33],7.22 mmHg
same,Change in intraocular pressure,[1]; [33],5.75 mmHg
same,Average intraocular pressure in both eyes,[1]; [34],7.97 mmHg
same,Change in intraocular pressure,[1]; [34],6.45 mmHg
same,Average intraocular pressure in both eyes,[1]; [35],10.17 mmHg
same,Change in intraocular pressure,[1]; [35],−0.28 mmHg
same,Efficacy of single administration (conclusion),"[1]; all tested doses (0.5 to 8.0 mg/mL), compared with K-115",better efficacy
same,Intraocular pressure reduction effect on 14 days of consecutive administration (conclusion),"[1]; dose of 0.5 mg/mL, compared with K-115",significant intraocular pressure reduction effect
same,Exposure amount of the active drug (conclusion),[2],significantly increased
